Measurements as given in US8394828B2 (Janssen Pharmaceutica, NV, priority 2003, dated 2013).

How the values were obtained:
human VR1 [1] = target: T1, human VR1 (Homo sapiens, UniProt Q8NER1); assay: Human VR1 functional assay (intracellular Ca++, FLIPR, capsaicin challenge); format: cell-based; conditions: hVR1, capsaicin challenge, read-out: FLIPR functional assay IC50 hVR1
T1 construct: expressed in transfected cells; host or cells: HEK293
Procedure: The functional activity of the test compounds was determined by measuring changes in intracellular calcium concentration using a Ca^++-sensitive fluorescent dye and FLIPR™ technology.
EC50 or IC50 values were determined from dose-response studies.

human VR1 [2] = target: T1, human VR1; assay: Human VR1 [3H] RTX binding assay; conditions: 3H-RTX binding; for inhibition at 1 µM: compound at 1 μM; for Ki: hVR1, read-out: 3H-RTX binding assay Ki hVR1
Procedure: Compounds of the present invention were tested for their ability to inhibit the binding of [^3H] RTX to hVR1 receptors in a [^3H]
HEK293 cells were transfected with human VR1 vanilloid receptors and washed with Hank's Balanced Salt Solution, dissociated with cell dissociation buffer (Sigma), and then centrifuged at 1000×g for 5 min. […] The pelleted membranes were kept in an −80° C. freezer.
Approximately 120 μg protein/ml from membranes were incubated with indicated concentrations of [^3H] RTX in 0.5 ml of the HEPES buffer (pH 7.4) containing 0.25 mg/mL fatty acid-free bovine serum albumin at 37° C. for 60 min. […] The tip of the microcentrifuge tube containing the pellet was cut off. Bound radioactivity was quantified by scintillation counting. Non-specific binding was tested in the presence of 200 nM unlabeled RTX.

T1 sequence (Q8NER1 whole entry): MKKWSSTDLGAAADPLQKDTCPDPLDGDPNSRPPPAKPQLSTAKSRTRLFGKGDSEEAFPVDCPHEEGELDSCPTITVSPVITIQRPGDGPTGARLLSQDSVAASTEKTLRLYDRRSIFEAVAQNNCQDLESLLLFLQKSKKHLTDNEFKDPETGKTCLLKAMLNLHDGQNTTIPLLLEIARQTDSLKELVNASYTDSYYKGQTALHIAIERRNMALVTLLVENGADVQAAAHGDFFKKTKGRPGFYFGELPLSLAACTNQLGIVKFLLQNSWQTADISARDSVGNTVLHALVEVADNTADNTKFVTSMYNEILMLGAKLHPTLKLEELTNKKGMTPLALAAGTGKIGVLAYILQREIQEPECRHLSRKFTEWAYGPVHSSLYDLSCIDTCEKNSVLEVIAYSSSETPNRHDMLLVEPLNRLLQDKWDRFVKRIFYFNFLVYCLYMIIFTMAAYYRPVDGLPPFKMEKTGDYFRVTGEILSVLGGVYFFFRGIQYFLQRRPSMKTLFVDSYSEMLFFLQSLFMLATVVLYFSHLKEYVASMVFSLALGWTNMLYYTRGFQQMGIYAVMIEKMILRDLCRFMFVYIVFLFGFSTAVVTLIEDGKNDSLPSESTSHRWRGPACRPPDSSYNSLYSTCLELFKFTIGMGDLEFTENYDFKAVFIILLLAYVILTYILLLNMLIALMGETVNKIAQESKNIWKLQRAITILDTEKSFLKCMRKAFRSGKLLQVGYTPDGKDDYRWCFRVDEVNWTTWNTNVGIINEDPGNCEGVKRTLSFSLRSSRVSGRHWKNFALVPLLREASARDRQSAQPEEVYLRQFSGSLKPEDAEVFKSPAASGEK

Compound	IC50 (human VR1 [1])	inhibition at 1 µM (human VR1 [2])	Ki (human VR1 [2])
O=C(Nc1cnc2ccccc2c1Cl)c1ccc2c(ccn2C2CCCCC2)c1 [1-Cyclohexyl-1H-indole-5-carboxylic acid (4-chloro-quinolin-3-yl)-amide]	166 nM	–	–
O=C(Nc1cnc2ccccc2c1)c1ccc2c(ccn2C2CCCCC2)c1 [1-Cyclohexyl-1H-indole-5-carboxylic acid quinolin-3-ylamide]	74 nM	–	–
O=C(Nc1cnc2ccccc2c1)c1ccc(N2CCC(C(=O)c3ccccc3)CC2)cc1 [4-(4-Benzoyl-piperidin-1-yl)-N-quinolin-3-yl-benzamide]	–	61%	276 nM
O=C(Nc1cnc2ccccc2c1)c1ccc(N2CCC(c3ccccc3)CC2)cc1 [4-(4-Phenyl-piperidin-1-yl)-N-quinolin-3-yl-benzamide]	–	34%	29300 nM
CCCCCN(Cc1ccccc1)c1ccc(C(=O)Nc2cnc3ccccc3c2)cc1 [4-(Benzyl-pentyl-amino)-N-quinolin-3-yl-benzamide]	–	67%	169 nM
Cc1cc(C(=O)Nc2cnc3ccccc3c2)ccc1NCC1CCCCC1 [4-(Cyclohexylmethyl-amino)-3-methyl-N-quinolin-3-yl-benzamide]	–	111%	87 nM
O=C(Nc1cnc2ccccc2c1)c1ccc(N(CCc2ccccc2)CC2CCCCC2)cc1 [4-(Cyclohexylmethyl-phenethyl-amino)-N-quinolin-3-yl-benzamide]	–	87%	162 nM
CCCCCN(CCCCC)c1ccc(C(=O)Nc2cnc3ccccc3c2)cc1 [4-Dipentylamino-N-quinolin-3-yl-benzamide]	–	–	158 nM
O=C(Nc1cnc2ccccc2c1)c1ccc(N2CCOCC2)cc1 [4-Morpholin-4-yl-N-quinolin-3-yl-benzamide]	–	4%	–
O=C(Nc1cnc2ccccc2c1)c1ccc(N2CCCCC2)cc1 [4-Piperidin-1-yl-N-quinolin-3-yl-benzamide]	–	60%	61.2 nM
O=C(Nc1cnc2ccccc2c1)c1ccc(N2CCCC2)cc1 [4-Pyrrolidin-1-yl-N-quinolin-3-yl-benzamide]	–	27%	–

More lines, now with the values ahead:

IC50 (human VR1 [1])	inhibition at 1 µM (human VR1 [2])	Ki (human VR1 [2])	Compound
–	8%	–	O=C(Nc1cnc2ccccc2c1)c1ccc(N2CCC(N3CCCCC3)CC2)cc1 [4-[1,4′]Bipiperidinyl-1′-yl-N-quinolin-3-yl-benzamide]
–	80%	194 nM	CCCCC(C)(C)c1ccc(C=CCC(=O)Nc2cnc3ccccc3c2)cc1 [4-{4-(1,1-Dimethyl-pentyl)-phenyl}-but-3-enoic acid quinolin-3-ylamide]
–	65%	527 nM	CCC(C)(C)c1ccc(CCCC(=O)Nc2cnc3ccccc3c2)cc1 [4-{4-(1,1-Dimethyl-propyl)-phenyl}-N-quinolin-3-yl-butyramide]
–	79%	125 nM	CN(CC=Cc1ccccc1)c1ccc(C(=O)Nc2cnc3ccccc3c2)cc1 [4-{Methyl-(3-phenyl-allyl)-amino}-N-quinolin-3-yl-benzamide]
–	19%	–	CN(c1ccc(C(=O)Nc2cnc3ccccc3c2)cc1)C1CCOCC1 [4-{Methyl-(tetrahydro-pyran-4-yl)-amino}-N-quinolin-3-yl-benzamide]
–	–	30.4 nM	CC1(C)CCC(C)(C)c2cc(C(=O)Nc3cnc4ccccc4c3)ccc21 [5,5,8,8-Tetramethyl-5,6,7,8-tetrahydro-naphthalene-2-carboxylic acid quinolin-3-ylamide]
–	9%	–	O=C(Nc1cnc2ccccc2c1)c1ccc(NC2CCOCC2)cc1 [N-Quinolin-3-yl-4-(tetrahydro-pyran-4-ylamino)-benzamide]
–	41%	–	O=C(Nc1cnc2ccccc2c1)c1ccc(N2CCSCC2)cc1 [N-Quinolin-3-yl-4-thiomorpholin-4-yl-benzamide]
–	105%	11.1 nM	CC(C)=CCC[C@@H](C)CCN(C)c1ccc(C(=O)Nc2cnc3ccccc3c2)cc1 [R-4-{(3,7-Dimethyl-oct-6-enyl)-methyl-amino}-N-quinolin-3-yl-benzamide]
